Assay results published in the supplement of paper PMC8967900.

Tested on: ALL-SIL
Assay: selective drug sensitivity score (sDSS, relative to normal bone marrow) (sDSS (score)); higher = more potent and effective on the cell line relative to normal bone marrow cells
Details: 72 h
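Note: ALL cell lines in 384-well plates, five doses spanning 10,000-fold, each plate scaled between vehicle and 100 µmol/L benzalkonium chloride controls, sDSS an adapted area-under-curve metric.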

| SMILES | selective drug sensitivity score |
| --- | --- |
| COC12C(COC(N)=O)C3=C(C(=O)C(C)=C(N)C3=O)N1CC1NC12 (stereo in doubt) [Mitomycin_C] (top concentration 10000 nM) | -2.86 |
| Cc1c(-c2c(-c3ccc(F)o3)sc3ncnc(O[C@H](Cc4ccccc4OCc4ccnn4CC(F)(F)F)C(=O)O)c23)ccc(OCCN2CCN(C)CC2)c1Cl (top concentration 1000 nM) | -1.04 |
| Cc1ncc(Cl)cc1NCc1ccc(C(=O)N[C@@H](CC2CCCC2)C(=O)NC2CC2)s1 (top concentration 5000 nM) | 4.16 |
| CCn1c(-c2nonc2N)nc2c(C#CC(C)(C)O)ncc(OC[C@H]3CCCNC3)c21 (top concentration 10000 nM) | 6.68 |
| CN(c1ncccc1CNc1nc(Nc2ccc3c(c2)CC(=O)N3)ncc1C(F)(F)F)S(C)(=O)=O (top concentration 10000 nM) | 4.92 |
| CNc1ncc2cc(-c3cc(NC(=O)NCCC(C)(C)C)c(F)cc3C)c(C)nc2n1 (top concentration 10000 nM) | 20.7 |
| C[C@@]1(C(=O)Nc2ccc(F)nc2)CCCN1c1nc(Nc2cc(C3CC3)n[nH]2)c2cccn2n1 (top concentration 10000 nM) | 10.5 |
| Cc1nc(Nc2n[nH]c3c2CN(C(=O)N[C@H](CN(C)C)c2ccccc2)C3(C)C)c2sccc2n1 (top concentration 10000 nM) | -5.82 |
| Cn1cc(-c2[nH]c3cc(NC(=O)[C@H](N)C4CCCCC4)cc4c3c2C=NNC4=O)cn1 (top concentration 10000 nM) | 9.18 |
| Cn1cc(-c2ccc(F)c(C(F)(F)F)c2)nc1C1CCN(c2ncnc3[nH]ncc23)CC1 (top concentration 10000 nM) | 0.06 |
| O=C(Nc1ccc2[nH]nc(-c3ccncc3)c2c1)[C@@H]1CCN(CC(=O)N2CCN(c3ccc(-c4ncccn4)cc3)CC2)C1 (top concentration 10000 nM) | 0.16 |
| CC(C)(C)c1cc(NC(=O)Nc2ccc(Oc3ccnc4[nH]c(=O)cnc34)cc2F)n(-c2ccccc2)n1 (top concentration 25000 nM) | 16.1 |
| Nc1ncnc2c1nc(N)n2[C@@H]1O[C@H](CO)[C@@H](O)[C@H]1O [8-amino-adenosine] (top concentration 50000 nM) | 2.68 |
| CC(C)[C@@H](CS(=O)(=O)C(C)C)N1C(=O)[C@@](C)(CC(=O)O)C[C@H](c2cccc(Cl)c2)[C@H]1c1ccc(Cl)cc1 [AMG-232] (top concentration 10000 nM) | -8.14 |
| CC(C)[C@H](C(=O)Nc1ccc(C(=O)NO)cc1)c1ccccc1 [AR-42] (top concentration 10000 nM) | 10.2 |
| O=C(Nc1c[nH]nc1-c1nc2ccc(CN3CCOCC3)cc2[nH]1)NC1CC1 [AT9283] (top concentration 1000 nM) | 15.6 |
| CCN(CCO)CCCOc1ccc2c(Nc3cc(CC(=O)Nc4cccc(F)c4)[nH]n3)ncnc2c1 [AZD1152-HQPA] (top concentration 1000 nM) | 23.4 |
| Cc1[nH]nc(C(F)(F)F)c1Cc1sc2c(c1C(=O)N1C[C@](C)(O)CO1)c(=O)n(C)c(=O)n2C(C)C [AZD3965] (top concentration 1000 nM) | 0 |

Tested on: CCRF-CEM
Assay: as above
Details: 72 h

| SMILES | selective drug sensitivity score |
| --- | --- |
| COC12C(COC(N)=O)C3=C(C(=O)C(C)=C(N)C3=O)N1CC1NC12 (stereo in doubt) [Mitomycin_C] (top concentration 10000 nM) | -2.86 |
| Cc1c(-c2c(-c3ccc(F)o3)sc3ncnc(O[C@H](Cc4ccccc4OCc4ccnn4CC(F)(F)F)C(=O)O)c23)ccc(OCCN2CCN(C)CC2)c1Cl (top concentration 1000 nM) | -0.24 |
| Cc1ncc(Cl)cc1NCc1ccc(C(=O)N[C@@H](CC2CCCC2)C(=O)NC2CC2)s1 (top concentration 5000 nM) | -0.94 |
| CCn1c(-c2nonc2N)nc2c(C#CC(C)(C)O)ncc(OC[C@H]3CCCNC3)c21 (top concentration 10000 nM) | 11.9 |
| CN(c1ncccc1CNc1nc(Nc2ccc3c(c2)CC(=O)N3)ncc1C(F)(F)F)S(C)(=O)=O (top concentration 10000 nM) | -0.28 |
| CNc1ncc2cc(-c3cc(NC(=O)NCCC(C)(C)C)c(F)cc3C)c(C)nc2n1 (top concentration 10000 nM) | 5.56 |
| C[C@@]1(C(=O)Nc2ccc(F)nc2)CCCN1c1nc(Nc2cc(C3CC3)n[nH]2)c2cccn2n1 (top concentration 10000 nM) | 11.8 |
| Cc1nc(Nc2n[nH]c3c2CN(C(=O)N[C@H](CN(C)C)c2ccccc2)C3(C)C)c2sccc2n1 (top concentration 10000 nM) | 6.98 |
| Cn1cc(-c2[nH]c3cc(NC(=O)[C@H](N)C4CCCCC4)cc4c3c2C=NNC4=O)cn1 (top concentration 10000 nM) | 6.08 |
| Cn1cc(-c2ccc(F)c(C(F)(F)F)c2)nc1C1CCN(c2ncnc3[nH]ncc23)CC1 (top concentration 10000 nM) | 0.86 |
| O=C(Nc1ccc2[nH]nc(-c3ccncc3)c2c1)[C@@H]1CCN(CC(=O)N2CCN(c3ccc(-c4ncccn4)cc3)CC2)C1 (top concentration 10000 nM) | -0.54 |
| CC(C)(C)c1cc(NC(=O)Nc2ccc(Oc3ccnc4[nH]c(=O)cnc34)cc2F)n(-c2ccccc2)n1 (top concentration 25000 nM) | -2.18 |
| Nc1ncnc2c1nc(N)n2[C@@H]1O[C@H](CO)[C@@H](O)[C@H]1O [8-amino-adenosine] (top concentration 50000 nM) | 6.48 |
| CC(C)[C@@H](CS(=O)(=O)C(C)C)N1C(=O)[C@@](C)(CC(=O)O)C[C@H](c2cccc(Cl)c2)[C@H]1c1ccc(Cl)cc1 [AMG-232] (top concentration 10000 nM) | -7.34 |
| CC(C)[C@H](C(=O)Nc1ccc(C(=O)NO)cc1)c1ccccc1 [AR-42] (top concentration 10000 nM) | 6.68 |
| O=C(Nc1c[nH]nc1-c1nc2ccc(CN3CCOCC3)cc2[nH]1)NC1CC1 [AT9283] (top concentration 1000 nM) | 12.5 |
| CCN(CCO)CCCOc1ccc2c(Nc3cc(CC(=O)Nc4cccc(F)c4)[nH]n3)ncnc2c1 [AZD1152-HQPA] (top concentration 1000 nM) | 16.9 |
| Cc1[nH]nc(C(F)(F)F)c1Cc1sc2c(c1C(=O)N1C[C@](C)(O)CO1)c(=O)n(C)c(=O)n2C(C)C [AZD3965] (top concentration 1000 nM) | 0.3 |

Tested on: CCRF-HSB2
Assay: as above
Details: 72 h

| SMILES | selective drug sensitivity score |
| --- | --- |
| COC12C(COC(N)=O)C3=C(C(=O)C(C)=C(N)C3=O)N1CC1NC12 (stereo in doubt) [Mitomycin_C] (top concentration 10000 nM) | -2.86 |
| Cc1c(-c2c(-c3ccc(F)o3)sc3ncnc(O[C@H](Cc4ccccc4OCc4ccnn4CC(F)(F)F)C(=O)O)c23)ccc(OCCN2CCN(C)CC2)c1Cl (top concentration 1000 nM) | -5.14 |
| Cc1ncc(Cl)cc1NCc1ccc(C(=O)N[C@@H](CC2CCCC2)C(=O)NC2CC2)s1 (top concentration 5000 nM) | 0.66 |
| CCn1c(-c2nonc2N)nc2c(C#CC(C)(C)O)ncc(OC[C@H]3CCCNC3)c21 (top concentration 10000 nM) | 0.88 |
| CN(c1ncccc1CNc1nc(Nc2ccc3c(c2)CC(=O)N3)ncc1C(F)(F)F)S(C)(=O)=O (top concentration 10000 nM) | 1.42 |
| CNc1ncc2cc(-c3cc(NC(=O)NCCC(C)(C)C)c(F)cc3C)c(C)nc2n1 (top concentration 10000 nM) | 20.2 |
| C[C@@]1(C(=O)Nc2ccc(F)nc2)CCCN1c1nc(Nc2cc(C3CC3)n[nH]2)c2cccn2n1 (top concentration 10000 nM) | 12.1 |
| Cc1nc(Nc2n[nH]c3c2CN(C(=O)N[C@H](CN(C)C)c2ccccc2)C3(C)C)c2sccc2n1 (top concentration 10000 nM) | 11.1 |
| Cn1cc(-c2[nH]c3cc(NC(=O)[C@H](N)C4CCCCC4)cc4c3c2C=NNC4=O)cn1 (top concentration 10000 nM) | 6.98 |
